How the values were obtained:
Assay in all cases: relative viability (nuclei count vs DMSO), 5 days (fraction); higher = more cells survive
EHT 1864 + Palbociclib = compound: C1COCCN1CC2=CC(=O)C(=CO2)OCCCCCSC3=C4C=CC(=CC4=NC=C3)C(F)(F)F [EHT 1864] + CC(=O)c1c(C)c2cnc(Nc3ccc(N4CCNCC4)cn3)nc2n(C2CCCC2)c1=O [Palbociclib] (partner 0.5 µM)
How it was run: (§1)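 After 5 days of treatment, lung cancer cells in 1536-well plates were fixed and stained in a single step (final 0.05% Triton X-100, 1% formaldehyde, 1 ug/ml Hoechst) and their nuclei counted on 4× images. Treatment had been applied by pin tool the day after seeding as one drug alone or as a fixed anchor-drug dose with five library-drug doses (not always all listed) in √10 steps. Relative viability is the nuclei count of treated wells divided by that of vehicle wells, and values are medians of duplicate plates.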

EHT 1864 + Dasatinib = compound: C1COCCN1CC2=CC(=O)C(=CO2)OCCCCCSC3=C4C=CC(=CC4=NC=C3)C(F)(F)F [EHT 1864] + Cc1nc(Nc2ncc(C(=O)Nc3c(C)cccc3Cl)s2)cc(N2CCN(CCO)CC2)n1 [Dasatinib] (partner 0.075 µM)
How it was run: as §1

EHT 1864 + Luminespib = compound: C1COCCN1CC2=CC(=O)C(=CO2)OCCCCCSC3=C4C=CC(=CC4=NC=C3)C(F)(F)F [EHT 1864] + CCNC(=O)c1noc(-c2cc(C(C)C)c(O)cc2O)c1-c1ccc(CN2CCOCC2)cc1 [Luminespib] (partner 0.01 µM)
How it was run: as §1

EHT 1864 + Bortezomib = compound: C1COCCN1CC2=CC(=O)C(=CO2)OCCCCCSC3=C4C=CC(=CC4=NC=C3)C(F)(F)F [EHT 1864] + CC(C)C[C@H](NC(=O)[C@H](Cc1ccccc1)NC(=O)c1cnccn1)B(O)O [Bortezomib] (partner 0.002 µM)
How it was run: as §1

| Cell Line | relative viability (EHT 1864 + Palbociclib; first compound 0.04 µM) | relative viability (EHT 1864 + Palbociclib; first compound 0.1265 µM) | relative viability (EHT 1864 + Palbociclib; first compound 0.4 µM) | relative viability (EHT 1864 + Palbociclib; first compound 1.265 µM) | relative viability (EHT 1864 + Palbociclib; first compound 4 µM) | relative viability (EHT 1864 + Dasatinib; first compound 0.04 µM) | relative viability (EHT 1864 + Dasatinib; first compound 0.1265 µM) | relative viability (EHT 1864 + Dasatinib; first compound 0.4 µM) | relative viability (EHT 1864 + Dasatinib; first compound 1.265 µM) | relative viability (EHT 1864 + Dasatinib; first compound 4 µM) | relative viability (EHT 1864 + Luminespib; first compound 0.04 µM) | relative viability (EHT 1864 + Luminespib; first compound 0.1265 µM) | relative viability (EHT 1864 + Luminespib; first compound 0.4 µM) | relative viability (EHT 1864 + Luminespib; first compound 1.265 µM) | relative viability (EHT 1864 + Luminespib; first compound 4 µM) | relative viability (EHT 1864 + Bortezomib; first compound 0.04 µM) | relative viability (EHT 1864 + Bortezomib; first compound 0.1265 µM) | relative viability (EHT 1864 + Bortezomib; first compound 0.4 µM) | relative viability (EHT 1864 + Bortezomib; first compound 1.265 µM) | relative viability (EHT 1864 + Bortezomib; first compound 4 µM) |
| --- | --- | --- | --- | --- | --- | --- | --- | --- | --- | --- | --- | --- | --- | --- | --- | --- | --- | --- | --- | --- |
| COR-L 105 | 0.362 | 0.417 | 0.411 | 0.414 | 0.41 | 0.415 | 0.314 | 0.34 | 0.334 | 0.396 | 0.748 | 0.751 | 0.808 | 0.628 | 0.686 | 0.772 | 0.7 | 0.941 | 0.751 | 0.727 |
| LK-2 | 0.67 |  | 0.523 | 0.639 | 0.588 | 0.36 |  | 0.353 | 0.246 | 0.257 | 0.167 |  | 0.224 | 0.178 | 0.177 |  |  |  |  |  |
| NCI-H727 | 0.663 | 0.642 | 0.626 | 0.595 | 0.653 | 0.397 | 0.334 | 0.344 | 0.371 | 0.343 | 0.62 | 0.417 | 0.376 | 0.538 | 0.385 | 0.92 | 0.973 | 0.848 |  | 1.12 |
| RERF-LC-KJ | 1.09 | 0.989 | 0.929 | 1.02 | 1.11 | 0.825 | 0.793 | 0.795 | 0.772 | 0.682 | 1.34 | 1.02 | 1.17 | 1.29 | 1.06 | 1.05 | 0.948 | 1.04 | 0.951 | 1.15 |
| NCI-H2023 | 0.33 | 0.318 | 0.354 | 0.382 | 0.364 | 0.568 | 0.628 | 0.508 | 0.517 | 0.577 | 0.585 | 0.723 | 0.704 | 0.634 | 0.68 | 0.911 | 0.634 | 0.867 | 1.04 | 0.953 |
| NCI-H322M | 0.488 | 0.488 | 0.434 | 0.456 | 0.465 | 0.256 | 0.24 | 0.283 | 0.23 | 0.234 | 0.877 | 0.859 | 0.955 | 0.529 | 1.06 | 1.22 | 1.2 | 1.23 | 1.27 | 1.25 |
| NCI-H1666 | 0.644 | 0.611 | 0.667 | 0.583 | 0.636 | 0.86 | 0.805 | 0.746 | 0.745 | 0.795 | 1 | 1.03 | 0.877 | 0.993 | 0.968 | 0.763 | 0.728 | 0.772 | 0.78 | 0.98 |
| NCI-H1648 | 0.261 |  | 0.269 | 0.258 | 0.278 |  |  |  |  |  |  |  |  |  |  |  |  |  |  |  |
| NCI-H2087 | 0.266 |  | 0.223 | 0.156 | 0.224 | 0.851 |  | 0.758 | 0.846 | 0.825 | 0.175 |  | 0.143 | 0.168 | 0.135 | 0.629 | 0.569 | 0.753 | 0.739 | 0.781 |
| LU99A | 0.438 | 0.375 | 0.364 | 0.396 | 0.374 | 0.482 | 0.413 | 0.613 | 0.564 | 0.436 | 0.186 | 0.242 | 0.229 | 0.215 | 0.233 | 1.06 | 0.672 | 1.06 | 1.25 | 1.13 |
| HCC-366 | 0.42 | 0.319 | 0.348 | 0.327 | 0.361 | 0.609 | 0.602 | 0.638 | 0.596 | 0.771 |  |  |  |  |  | 1.03 |  | 0.928 | 1.03 | 1.11 |
| EKVX | 0.351 | 0.401 | 0.441 | 0.292 | 0.374 | 0.631 | 0.436 | 0.536 | 0.51 | 0.58 | 0.9 | 0.871 | 0.834 | 0.836 | 0.885 | 0.995 | 0.984 | 0.971 | 0.818 | 0.977 |
| NCI-H522 | 1.11 | 1.02 | 0.948 | 1 | 1.05 | 0.919 | 0.724 | 1.04 | 0.812 | 0.875 | 1.18 |  | 1.23 | 1.06 | 1.22 |  |  |  |  |  |
| NCI-H1755 | 0.46 | 0.437 | 0.42 | 0.43 | 0.42 | 0.424 | 0.333 | 0.425 | 0.369 | 0.399 | 0.618 | 0.3 | 0.601 | 0.42 | 0.401 | 1.02 | 0.824 | 0.895 | 0.899 | 0.941 |
| NCI-H647 | 0.414 | 0.351 | 0.451 | 0.373 | 0.375 | 0.193 | 0.121 | 0.168 | 0.179 | 0.204 | 0.196 | 0.213 | 0.126 | 0.102 | 0.111 | 0.808 | 0.753 | 0.954 | 0.934 | 1.04 |
| LC-2-ad | 0.481 | 0.436 | 0.447 | 0.46 | 0.464 | 0.65 |  | 0.617 | 0.54 | 0.659 | 1.12 |  | 0.912 | 1 | 0.951 | 0.924 |  | 0.993 | 1.04 | 0.903 |
| NCI-H1944 | 0.327 |  | 0.353 | 0.311 | 0.332 | 0.238 |  | 0.208 | 0.228 | 0.21 | 0.827 |  | 0.74 | 0.712 | 0.802 |  |  |  |  |  |
| HCC-827 | 0.57 | 0.498 | 0.508 | 0.473 | 0.386 | 0.358 | 0.328 | 0.268 | 0.248 | 0.269 | 0.517 | 0.427 | 0.465 | 0.487 | 0.588 | 1.1 | 0.844 | 0.999 | 1.11 | 0.985 |
| HCC-78 | 0.414 | 0.568 | 0.46 | 0.493 | 0.478 | 0.365 | 0.367 | 0.357 | 0.338 | 0.337 |  |  |  |  |  | 0.409 | 0.534 | 0.432 | 0.456 | 1.1 |

From the supplement of paper PMC10307832
